In patent publication US8207122B2, “Anti-cancer bioactive peptides isolated from crude venom of Xinjiang Lycosa singoriensis” (Xiamen Bioway Biotech Co., Limited, priority 2007, dated 2012):
Where a SMILES comes first, the peptide text is derived from it. Where no end group is shown, it is not given here.

Assays:
[1] = tested on: Hela cells; assay: Comparison of inhibitory activity of peptides on Hela cells; assay type: cell-based; conditions: for activity compared with SEQ ID NO. 1: anti-cancer activity, in words
Method: The above-mentioned experiments have verified the peptide has strong inhibition on the growth of cancer cells and solid tumors. In order to study the inhibition degree of difference sequences (SEQ. Nos. 1-5) of the peptide on tumor cells, comparative experiments of measuring the activity of Hela cells were conducted (as shown in FIG. 7).
Nos. 1-4, at a concentration of 40 μmol/L, the inhibition rate on Hela cells was about 90%, at 20 μmol/L, about 50%, at 5 μmol/L, only 2%. Thus, the inhibition degree of SEQ. Nos. 1-4 on Hela cells was basically equal. However, for SEQ. No. 5, at a concentration of 40 μmol/L, 20 μmol/L, and 5 μmol/L, the inhibition rate on Hela cells was more than 80%. Compared with that of SEQ. Nos. 1-4, the inhibition degree of SEQ. No. 5 had been increased by about 10 times. No. 1 and SEQ. No. 5 could dissolve 19% and 37% red cells respectively, which meant the hemolytic activity of SEQ. No. 5 was […] than that of SEQ. No. 1.

[2] = Toxicity on a whole animal, subcutaneous injection; assay type: in vivo; conditions: 200 mg/Kg body weight, mice, within 48 hours

With “Lys Gly Trp Phe Lys Ala Met Lys Ser Ile Ala Lys Phe Ile Ala Lys Glu Lys Leu Lys Glu His Leu-NH2 (KGWFKAMKSIAKFIAKEKLKEHL-NH2) [SEQ ID NO. 3]” the “activity compared with SEQ ID NO. 1” value [1] was “same activity”.
For `CC[C@H](C)[C@H](NC(=O)[C@H](Cc1ccccc1)NC(=O)[C@H](CCCCN)NC(=O)[C@H](C)NC(=O)[C@@H](NC(=O)[C@H](CO)NC(=O)[C@H](CCCCN)NC(=O)[C@H](CCSC)NC(=O)[C@H](C)NC(=O)[C@@H](N)CCCCN)[C@@H](C)CC)C(=O)N[C@@H](C)C(=O)N[C@@H](CCCCN)C(N)=O` [SEQ. No. 5, Lys Ala Met Lys Ser Ile Ala Lys Phe Ile Ala Lys-NH2] (H-KAMKSIAKFIAK-NH2), the “inhibition rate on Hela cells” value ([1]; 5 μmol/L) was “more than 80%”, the “inhibition rate on Hela cells” value ([1]; 20 μmol/L) was “more than 80%” and the “inhibition rate on Hela cells” value ([1]; 40 μmol/L) was “more than 80%”.
With “Lys Gly Trp Phe Lys Ala Met Lys Ser Ile Ala Lys Phe Ile Ala Lys Glu Lys Met Lys Glu His Leu-NH2 (KGWFKAMKSIAKFIAKEKMKEHL-NH2; listed as Lycosa singoriensis) [SEQ ID NO. 2]” the “activity compared with SEQ ID NO. 1” value [1] was “same activity”.
With WFKAMKSIAKFIAKEKLK [SEQ ID NO. 4] the “activity compared with SEQ ID NO. 1” value [1] was “same activity”.
In the case of `CC[C@H](C)[C@H](NC(=O)[C@H](Cc1ccccc1)NC(=O)[C@H](CCCCN)NC(=O)[C@H](C)NC(=O)[C@@H](NC(=O)[C@H](CO)NC(=O)[C@H](CCCCN)NC(=O)[C@H](CCSC)NC(=O)[C@H](C)NC(=O)[C@H](CCCCN)NC(=O)[C@H](Cc1ccccc1)NC(=O)[C@H](Cc1c[nH]c2ccccc12)NC(=O)CNC(=O)[C@H](CCCCN)NC(=O)[C@@H](N)CCCNC(=N)N)[C@@H](C)CC)C(=O)N[C@@H](C)C(=O)N[C@@H](CCCCN)C(=O)N[C@@H](CCC(=O)O)C(=O)N[C@@H](CCCCN)C(=O)N[C@@H](CC(C)C)C(=O)N[C@@H](CCCCN)C(=O)N[C@@H](CCC(=O)O)C(=O)N[C@@H](Cc1c[nH]cn1)C(=O)N[C@@H](CC(C)C)C(N)=O` [SEQ. No. 1] (H-RKGWFKAMKSIAKFIAKEKLKEHL-NH2), the toxic reaction [2] is reported as “no obvious toxic reaction was observed”.
